The data set is described as follows: gradient 5% acetonitrile 3 min, to 50% in 2 min, to 85% in 15 min, held 3 min, 100 µL/min. The note with it: column: Zorbax Extend-C18 2.1 x 50 mm; eluents: water / acetonitrile, 0.1% formic acid. Summed up:
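Data were gathered over 3 months by HPLC coupled to a quadrupole time-of-flight mass spectrometer, operated in positive and negative ionization mode. Mixtures of ~100 pure standards ran on a Zorbax Extend-C18 column (2.1 × 50 mm, 1.8 μm) at 100 μL/min, with water and acetonitrile each containing 0.1% formic acid and dead and dwell volumes of 40 μL and 900 μL. Retention time was read from adduct peaks picked by computer and checked manually.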
The molecule `CC1(C(=O)NCc2ccc(F)cc2)CCN(S(=O)(=O)c2ccc(C3CCCCC3)cc2)CC1` returned an RP-LC retention time of 1210 s.

In the case of `O=c1ccc(-c2ccccc2)nn1Cc1nc(-c2cccc(Br)c2)no1`, the RP-LC retention time turned out to be 1090 s. The value for `O=C(Cn1cnc2c(sc3nc(-c4ccccc4)ccc32)c1=O)NCc1ccc(Cl)cc1` was 1070 s; that for `O=C(Nc1ccc2cn[nH]c2c1)c1ccc(F)cc1F` was 675 s. Regarding `Cc1nnc2ccc(N3CCN(C(=O)CSc4nc5ccccc5s4)CC3)nn12`, the RP-LC retention time amounted to 652 s. The value for `CC1CCN(c2ncc3c(n2)CCC(C(=O)NC(C)c2ccccn2)C3)CC1` (centres undefined) was 614 s.

The molecule `C[C@]12CC[C@H]3[C@@H](C[C@H](F)C4=CC(=O)CC[C@@]43C)[C@@H]1CC[C@@H]2O` had an RP-LC retention time of 798 s. `CCC(C)NC(=O)c1ccc2c(c1)CCCN2S(C)(=O)=O` (centres undefined) yielded an RP-LC retention time of 754 s. The value for `O=C(Nc1ccc(Br)cc1)c1ccc(S(=O)(=O)N2CCCC2)cc1` was 914 s; that for `CCn1nccc1-c1cccc(-c2noc(CNC(=O)c3ccco3)n2)c1` was 791 s. As for `O=C(COCc1nnc(C(=O)Nc2cccc(Cl)c2)s1)NCCc1c[nH]c2ccccc12`, the RP-LC retention time is 930 s.

`Cc1ccc(-n2ccn3cc(-c4ccc(F)cc4F)nc3c2=O)cc1Cl` came in with an RP-LC retention time of 1000 s. For `CC(C)c1cc(N2CCN(c3ccccn3)CC2)n2ncc(-c3ccccc3)c2n1`, the RP-LC retention time was 670 s. The value for `OC1(c2ccccc2)CCN(Cc2ccccc2)CC1` was 553 s.

`CC1CS(=O)(=O)N(c2ccc(C(=O)NCCc3c[nH]c4ccccc34)c(Cl)c2)C1=O` (centres undefined) yielded an RP-LC retention time of 809 s. The value for `Cc1ccc(CNC(=O)Nc2cc3c(cc2N2CCOCC2)n(C)c(=O)n3C)cc1` was 750 s; that for `O=C(NCc1ccccc1)C12CC3CCC(CC(C3)C1)C2` was 1020 s.

In the case of `COc1cc(NS(=O)(=O)c2ccc3c(c2)-c2oncc2CO3)cc(OC)c1`, the RP-LC retention time stood at 884 s.

As to `CCNC(=O)c1csc(N2CCCC(C)C2)n1` (centres undefined), the RP-LC retention time is 928 s. The value for `Cc1oc(C)c(S(=O)(=O)NC2CC2)c1C(=O)NCc1ccc2c(c1)OCO2` was 830 s; that for `CC(=O)Nc1cc(C(=O)NC(C)c2ccccc2)c2ccc(C)nc2c1` (centres undefined) was 1030 s. Molecule `CC1=C(c2ccc(C)cc2)S(=O)(=O)N=C1N1CCCN(C(=O)NCC(C)C)CC1` registered an RP-LC retention time of 822 s. The value for `Cc1nn(CC(=O)NCC(C)C)c(=O)c2nc(-c3ccccc3)sc12` was 830 s. The value for `Cc1ccc(N2C(=O)N(Cc3ccccc3)S(=O)(=O)c3cccnc32)cc1F` was 1100 s; that for `COC(=O)c1cc(OCC(=O)Nc2ccc(OC)cc2)c2cc(F)ccc2n1` was 796 s; that for `COc1ccc(-n2nc(C(=O)N3CCN(c4ccccn4)CC3)c(=O)n(C)c2=O)cc1` was 623 s.

As for `CC(C)CNS(=O)(=O)c1cc(-c2nc(CC(C)C)cs2)cs1`, the RP-LC retention time is 1170 s. The value for `O=C(Nc1ccc(Br)cc1F)C1CCCN(C(=O)c2cccc(C(F)(F)F)c2)C1` (centres undefined) was 1060 s; that for `CC1CCCN(c2ccc(-c3noc(CN4CCN(c5ccccc5)CC4)n3)cn2)C1` (centres undefined) was 1010 s; that for `CN1CCCN(C(=O)c2ccc(-c3ccsc3)nc2)CC1` was 586 s. `O=C(CCc1ccc2nc(-c3ccccc3)[nH]c2c1)N1CCCCCC1` yielded an RP-LC retention time of 642 s.

As to `CC(=O)Nc1nc2c(s1)CN(CC(=O)Nc1ccc(F)c(Cl)c1)CC2`, the RP-LC retention time worked out at 573 s. As for `Cc1ccc(C(=O)N2CCN(c3nnc4ccc(C(F)(F)F)cn34)CC2)s1`, the RP-LC retention time came out at 762 s. The value for `O=C(NCC1CCN(S(=O)(=O)C2CC2)CC1)Nc1ccccc1C(F)(F)F` was 765 s; that for `CCCc1cc(N2CCN(C(=O)c3cc(OC)cc(OC)c3)CC2)nc2nncn12` was 576 s; that for `N#Cc1ccc(-c2nc(-c3ccc4c(c3)nnn4CCC(=O)N3CCOCC3)no2)c(F)c1` was 674 s. With `COC1CCN(CC2CCCCCN2C(=O)Nc2ccc3c(c2)OCCO3)CC1` (centres undefined), the RP-LC retention time came to 651 s.

Molecule `CN(CC1CCOCC1)S(=O)(=O)Cc1ccccc1F` displayed an RP-LC retention time of 786 s.

As for `O=S(=O)(c1ccc(Br)cc1)N1CCNCC1`, the RP-LC retention time came to 549 s.

As for `Cc1cccc(C2CN(C)CCc3c2cc(O)c(O)c3Cl)c1` (centres undefined), the RP-LC retention time was determined as 648 s.

`Cc1cccc(NC(=O)Cn2nc3c(Oc4cccc(F)c4)nccn3c2=O)c1`: the RP-LC retention time came out at 864 s. Molecule `CCc1noc(-c2ccc(-n3cnc(C(=O)NC(C)c4ccccc4)c3)nc2)n1` (centres undefined) returned an RP-LC retention time of 919 s.

The molecule `COc1ccc(-c2nnc(Cc3nc(-c4ccccc4)no3)o2)cc1OC` returned an RP-LC retention time of 949 s. Molecule `Cc1nnc(-c2ccc3ccn(CC(=O)N4CCN(c5ccc(F)cc5)CC4)c3c2)o1` gave an RP-LC retention time of 827 s.

Regarding `COc1ccc(CNC(=O)CN2CCN(Cc3ccccc3C)C(=O)C2=O)cc1`, the RP-LC retention time was 715 s. The value for `COc1ccc(NC(=O)C2CCN(S(=O)(=O)c3c(C)[nH]c(C)c3C(=O)N3CCCC3)CC2)cc1` was 693 s; that for `CCn1ccc2sc(C)c(C(=O)NCCOC)c2c1=O` was 610 s; that for `COc1cccc(-c2csc(Nc3cc(C)ccn3)n2)c1` was 810 s. In the case of `COC(=O)c1cc(S(=O)(=O)N2CCCC2C(=O)Nc2ccc(C(C)C)cc2)cn1C` (centres undefined), the RP-LC retention time is 1020 s. For `O=C(NCc1ccccc1)c1nnc(-c2ccc(S(=O)(=O)N3CCOCC3)cc2)o1`, the RP-LC retention time is 816 s. `CCc1cc(C(=O)Nc2ccc(C#N)cc2)nc2ccnn12` returned an RP-LC retention time of 965 s. The value for `COc1ccc(-c2nnc(-c3cc(S(=O)(=O)NCc4cccs4)ccc3Cl)o2)cc1` was 1040 s; that for `CCc1nc(-c2csc(S(=O)(=O)N3CCCC(C(=O)Nc4cccc(Cl)c4C)C3)c2)no1` (centres undefined) was 1080 s. The value for `Cc1nc2c(n1C)CN(C(=O)Cc1c(F)cccc1Cl)CC2` was 594 s; that for `O=C(NCc1csc(-c2cccs2)n1)C1CCN(S(=O)(=O)c2ccc(Cl)s2)CC1` was 957 s; that for `O=C(Cn1c(=O)c2cc(C3CC3)nn2c2ncccc21)Nc1cc(F)cc(F)c1` was 815 s. The value for `Cc1ccc(C)c(N2CCN(c3ccnc(SCC(=O)NCc4ccc(Cl)cc4)n3)CC2)c1` was 942 s; that for `CCc1noc(NC(C)=O)c1-c1ccc(C)c(S(=O)(=O)N2CCOCC2)c1` was 743 s; that for `c1ccc(-c2nc(CSc3cc(N4CCOCC4)ncn3)cs2)cc1` was 817 s.

On to `COc1ccc(S(=O)(=O)N(C)C2CCc3nn(CC4CC4)c(=O)n3CC2)cc1OC` (centres undefined), for which the RP-LC retention time is 731 s. The value for `Cn1nc(CNC(=O)c2ccc(Cl)cc2)c2ccccc21` was 852 s. The value for `COc1cc(OC)c(NC(=O)Cn2ccc3ccc(-c4nnc(C)o4)cc32)cc1Cl` was 859 s; that for `Cc1ccc(-c2nc(C)cc(SCC(=O)Nc3ccccc3Br)n2)cc1` was 1290 s; that for `Cc1c(S(=O)(=O)NCC(c2cccnc2)c2cn(C)c3ccccc23)cnn1C(F)F` (centres undefined) was 698 s. With `Cc1sc(NC(=O)Cn2c(=O)oc3ccccc32)nc1-c1ccc(Cl)cc1`, the RP-LC retention time amounted to 1060 s. The molecule `CCn1c(SC)nnc1-c1nn(C)c2c1CN(C(=O)c1ccc(F)c(F)c1)CC2` gave an RP-LC retention time of 804 s. The value for `Cc1ccc(-c2cn3c(CC(=O)N4CCN(c5ccc(Cl)cc5)CC4)csc3n2)cc1C` was 997 s; that for `COCCCNC(=O)C1COc2ccc(NC(=O)c3ccc(Br)cc3)cc2C1` (centres undefined) was 788 s. The value for `Cn1c(=O)c(C(=O)NC2CCCC2)nc2cccnc21` was 707 s; that for `COc1ccc(NC(=O)CSc2nccc3c2ccn3Cc2ccc(F)cc2)cc1OC` was 788 s. For the molecule `COC(=O)c1ccc(C(=O)NCC2CCN(S(C)(=O)=O)CC2)cc1`, the RP-LC retention time is 637 s.

Molecule `CCCN1CCN(C(=O)C(C)C2CCN(C(=O)c3[nH]c(C)c(C(=O)OCC)c3C)CC2)CC1` (centres undefined) displayed an RP-LC retention time of 620 s. The value for `CCc1cc(C(=O)Nc2ccc(OC)c(OC)c2)nc2cc(-c3ccco3)nn12` was 1030 s; that for `CC(C)c1cc(C(=O)Nc2cccc(C(F)(F)F)c2)nn1C1CCS(=O)(=O)C1` (centres undefined) was 1000 s.

With `Cc1oc2c(c1C(=O)Nc1ccc(F)c(F)c1)C1=NCCN1C=N2`, the RP-LC retention time was 643 s. `CCc1nc2cccnc2n1CCN1CCN(C(=O)Nc2ccc3c(c2)OCO3)CC1` had an RP-LC retention time of 579 s.

`CCN1CCN(c2cc(C(=O)O)c3cc(NC(=O)C(C)(C)C)ccc3n2)CC1` had an RP-LC retention time of 564 s. The value for `CN(CC(O)COc1ccc2c(c1)OCO2)C1CCCCC1` (centres undefined) was 567 s. The value for `O=C(Nc1ccccc1-c1nc2ccccc2[nH]1)C1CC1` was 623 s.

(Values after the METLIN SMRT retention time set (Domingo-Almenara et al. 2019).)
